Experimental findings from PubChem BioAssay AID1949 (Southern Research Institute, 2009) are described below.

The subject of the experiment is M. tuberculosis H37Rv growth inhibition. Put plainly: Mycobacterium tuberculosis H37Rv growth inhibition, cell based, confirmatory dose response (AID 1949).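 Also: bacteria grown 7 days with compound before Alamar blue readout.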

In brackets after ≈: the same amount, converted by molar mass. Inconclusive results are not listed. Activity calls are given as the source filed them. No rule for the calls is given here.

Take `CCCNC(=S)NC(=O)c1ccc(C(C)(C)C)cc1`: the IC50 was 17 µg/mL (≈ 61 µM).
Take `O=C(Nc1ccc(Cl)cc1)c1cc([N+](=O)[O-])ccc1O`: the IC50 is 17.7 µg/mL (≈ 60.6 µM).
As to `CCCS(=O)(=O)c1nnnn1-c1cccc(OC)c1`, the IC50 is 0.65 µg/mL (≈ 2.3 µM).
Turning to `Cc1ccc(N2C(=O)CC(Sc3ccccc3C(=O)Nc3ccccc3)C2=O)cc1` (configuration not stated), the IC50 is 4.92 µg/mL (≈ 11.8 µM).
With `Clc1ccc(OCCCn2ccnc2)cc1Cl`, the IC50 was 3.98 µg/mL (≈ 14.7 µM).
For `CC12CCC(C(=O)Nc3ccc(OC(F)(F)F)cc3)(CC1=O)C2(C)C` (configuration not stated) the value was 3.09 µg/mL (≈ 8.7 µM).
On to `COC(=O)COc1ccc2c(-c3ccc(OC)cc3)cc(=O)oc2c1`, for which the IC50 is 0.86 µg/mL (≈ 2.53 µM).
For `O=Cc1cc(COc2ccc(F)cc2Cl)cs1` the value was 3.16 µg/mL (≈ 11.7 µM).
As to `CC(C)Oc1ccc(NC(=O)CSc2nc3ccccc3s2)cc1`, the 50% inhibitory concentration (IC50) is 6.12 µg/mL (≈ 17.1 µM).
As for `CC1=NN(c2nc3ccccc3s2)C(=O)C1Cc1cccc2ccccc12` (configuration not stated), the IC50 was 0.3 µg/mL (≈ 0.808 µM).
For the molecule `CCCCOc1ccc(C2c3c(oc4ccc(Br)cc4c3=O)C(=O)N2CCCN2CCOCC2)cc1` (configuration not stated), the IC50 was 3.77 µg/mL (≈ 6.79 µM).
As to `CC1CC(C)CN(C(=O)Nc2ccc(Cl)c(Cl)c2)C1` (configuration not stated), the IC50 is 1.21 µg/mL (≈ 4.02 µM).
For `CCN(CC)c1cccc(Oc2nc([N+](=O)[O-])nn2C)c1` the value was 1.81 µg/mL (≈ 6.21 µM).
In the case of `COC(=O)c1ccc(OC(=O)c2c(F)c(F)c(F)c(F)c2F)cc1`, the IC50 is 9.14 µg/mL (≈ 26.4 µM).
As for `CN1CCN(c2ccc(NC(=S)NC(=O)c3cc4ccccc4o3)cc2)CC1`, the IC50 is 10.7 µg/mL (≈ 27.2 µM).
As for `Cc1cc(OCC(O)CNC(C)c2ccccc2)ccc1C(C)C` (configuration not stated), the figure is 5.52 µg/mL (≈ 16.9 µM); as for `O=[N+]([O-])c1ncn(Cc2ccc(Cl)cc2)n1`, 7.25 µg/mL (≈ 30.4 µM); as for `COC(=O)c1sc(NC(=O)c2c(F)c(F)c(F)c(F)c2F)c(C(N)=O)c1C`, less than 0.1 µg/mL.
With `CCn1cc(C(=O)O)c(=O)c2cc(F)c(N3CCN(C(=S)Nc4cc(C(F)(F)F)ccc4Cl)CC3)cc21`, the IC50 is 2.99 µg/mL (≈ 5.37 µM).
`COc1ccc(Nc2nc(-c3ccccn3)cs2)c(OC)c1`: the IC50 was less than 0.1 µg/mL.
As for `CC1(C)CC(=O)C2=C(C1)NC(Nc1nc3ccccc3o1)=NC2c1cccc(Br)c1` (configuration not stated), the IC50 is 3.24 µg/mL (≈ 6.96 µM).
Consider `Cc1cc(C)c2c(N)c3cccc(C)c3nc2n1`, for which the IC50 was > 50 µg/mL (inactive).
Turning to `O=C(CSc1ccc(Br)cc1)Nc1ccccc1`, the IC50 was 7.69 µg/mL (≈ 23.9 µM).
For `CN(C)c1ccc(C(O)(c2ccc(N(C)C)cc2)c2ccc(N(C)C)cc2)cc1` the value was 0.6 µg/mL (≈ 1.54 µM); for `COc1cc(/C=C2\Oc3ccccc3C2O)cc(Cl)c1OC` (configuration not stated), 3.04 µg/mL (≈ 9.54 µM); for `CCN(CC)c1ccc(-n2nc3cc(C)c(N)cc3n2)c(C)c1`, 13.1 µg/mL (≈ 42.3 µM).
Consider `O=C1NN=C2C1=NC1(CCCCC1)Cc1ccccc12`, for which the IC50 is 0.1 µg/mL (≈ 0.374 µM).
As for `O=[N+]([O-])c1cccc(NC(=S)Nc2cc(C(F)(F)F)ccc2F)c1`, the figure is 19 µg/mL (≈ 52.9 µM).
With `O=C(/C=C/c1cc([N+](=O)[O-])ccc1O)c1ccc(Cl)cc1`, the IC50 is 1.24 µg/mL (≈ 4.08 µM).
On to `O=C(CSc1n[nH]c(-c2ccc(Cl)cc2)n1)Nc1ccccc1Cl`, for which the IC50 was 4.21 µg/mL (≈ 11.1 µM).
As for `CCN(CC)C(=S)NC(=O)c1ccc(F)cc1`, the IC50 is 3.03 µg/mL (≈ 11.9 µM).
Turning to `COc1cccc2cc(C(=O)Oc3ccc(Cl)cc3)c(=O)oc12`, the IC50 was > 50 µg/mL (inactive).
As for `Cc1cccc(OCC(O)CN2CCN(CCN3C(=O)c4cccc5cccc(c45)C3=O)CC2)c1C` (configuration not stated), the IC50 is 2.53 µg/mL (≈ 5.19 µM).
`C=CCN1C(=O)C(O)(CC(=O)c2ccc(C)cc2C)c2ccccc21` (configuration not stated): the IC50 is 14.6 µg/mL (≈ 43.5 µM).
On to `CCc1ccc(O)c(NC(=S)NC(=O)c2cccc3ccccc23)c1`, for which the IC50 is 0.16 µg/mL (≈ 0.457 µM).
As to `NC(=O)c1c(NC(=O)c2c(F)c(F)c(F)c(F)c2F)sc2c1CCC2`, the half-inhibitory concentration (IC50) was 2.77 µg/mL (≈ 7.36 µM).
Turning to `CC(C)(C)Nc1nc(N2CCCC2)nc(N2CCCC2)n1`, the IC50 is > 50 µg/mL (inactive).
With `CCOC(=O)CSC1=C(C#N)C(c2ccccc2[N+](=O)[O-])C(C(C)=O)=C(C)N1` (configuration not stated), the IC50 was 1.41 µg/mL (≈ 3.51 µM).
Turning to `O=C(Nc1ccn(Cc2ccc(Cl)cc2)n1)c1ccc2c(c1)OCO2`, the IC50 was 2.43 µg/mL (≈ 6.83 µM).
As for `CCn1cc(C(=O)O)c(=O)c2cc(F)c(N3CCN(S(=O)(=O)c4ccc(NC(C)=O)cc4)CC3)cc21`, the figure is 36.6 µg/mL (≈ 70.8 µM); as for `Cc1cccc(OCCn2c(NC(=O)c3ccco3)nc3ccccc32)c1`, 2.87 µg/mL (≈ 7.94 µM); as for `COc1cc(/C=C/c2ccc3cccc(O)c3n2)cc([N+](=O)[O-])c1O`, 0.41 µg/mL (≈ 1.21 µM).
As for `O=C(CC(Nc1ccc(F)cc1)c1ccccc1)c1ccccc1` (configuration not stated), the IC50 was 9.26 µg/mL (≈ 29 µM).
Consider `CCOC(=O)c1ccc(NC(=O)/C=C/c2ccc([N+](=O)[O-])s2)cc1`, for which the IC50 is 0.28 µg/mL (≈ 0.808 µM).
With `COc1ccc(C2(C(=O)Nc3ccc(Br)cc3)CCCC2)cc1`, the IC50 is 1.37 µg/mL (≈ 3.66 µM).
Regarding `CC(C)OC(=O)COc1cc(O)c2c(=O)cc(-c3ccccc3)oc2c1`, the IC50 is 19.6 µg/mL (≈ 55.2 µM).
Take `CC1CCN(c2nc(-c3cccnc3)nc3ccccc23)CC1`: the IC50 was > 50 µg/mL (inactive).
As to `CC(=O)c1ccc(NC(=O)NC(C)C23CC4CC(CC(C4)C2)C3)cc1` (configuration not stated), the IC50 is 19 µg/mL (≈ 55.8 µM).
As for `COc1ccc(C2=CC(c3ccccc3Cl)n3nnnc3N2)cc1OC` (configuration not stated), the IC50 is 24.1 µg/mL (≈ 65 µM).
For the molecule `Cc1ccccc1NC(=O)c1c(NC(=O)CN2CCN(C)CC2)sc2c1CCC(C(C)(C)C)C2` (configuration not stated), the IC50 was 40.2 µg/mL (≈ 83.3 µM).
For `Cc1cc(Cl)ccc1NC(=O)CCc1ccc(S(=O)(=O)NCC(C)C)cc1`, the IC50 is 0.53 µg/mL (≈ 1.3 µM).
For `O=[N+]([O-])c1ccc(NC(=S)NCc2ccc(Cl)c(Cl)c2)cc1` the value was 1.84 µg/mL (≈ 5.17 µM); for `CCOC(=O)c1c(NC(=S)N2CCN(C(=O)C3CCCO3)CC2)sc(C)c1-c1ccccc1` (configuration not stated), 6.67 µg/mL (≈ 13.7 µM); for `Cc1cc(C(=O)NCC23CC4CC(CC(C4)C2)C3)ccc1[N+](=O)[O-]`, 0.42 µg/mL (≈ 1.28 µM).
In the case of `Cc1ccccc1C(=O)Nc1sc2c(c1C(=O)NCCO)CCC(C(C)(C)C)C2` (configuration not stated), the IC50 was > 50 µg/mL (inactive).
`S=C(NCCCN1CCN(c2ccc(Cl)cc2)CC1)Nc1cccc(Cl)c1`: the IC50 was 3 µg/mL (≈ 7.09 µM).
On to `CCCCOc1ccc(S(=O)(=O)Nc2ccc(C)c(Cl)c2)cc1`, for which the IC50 was 5.13 µg/mL (≈ 14.5 µM).
Regarding `Cn1c(NC(=O)c2ccccc2)nc2ccccc21`, the IC50 was 0.57 µg/mL (≈ 2.27 µM).
In the case of `CCOC(=O)COc1ccc(C(=O)NC2CCCCC2)cc1`, the IC50 is 1.09 µg/mL (≈ 3.57 µM).
For `O=C1c2ccccc2C(=O)c2c1nc1n2CCCC1`, the IC50 is > 50 µg/mL (inactive).
For the molecule `Cc1ccc(C(=O)Nc2ccc(C(F)(F)F)cc2)s1`, the IC50 was 4.67 µg/mL (≈ 16.4 µM).
As for `Cc1nc2c(-c3ccc(Cl)cc3)cnn2c(N)c1-c1ccccc1`, the figure is 0.84 µg/mL (≈ 2.51 µM).
`Cc1nc2ccccc2n1CCCOc1ccc(Cl)cc1`: the IC50 was 4.87 µg/mL (≈ 16.2 µM).
Regarding `O=C(CCSc1ccc(Cl)cc1)Nc1ccc(F)c(Cl)c1`, the IC50 is 4.06 µg/mL (≈ 11.8 µM).
`CSc1ccccc1NC(=O)c1ccc(Cl)s1`: the IC50 is 5.6 µg/mL (≈ 19.7 µM).
As to `CCOC(=O)COc1ccc2c(=O)c(-c3ccc(F)cc3)coc2c1`, the IC50 was 21.3 µg/mL (≈ 62.3 µM).
As to `C=CS(=O)c1sc(Cl)c(N2CCOCC2)c1[N+](=O)[O-]` (configuration not stated), the IC50 was 5.77 µg/mL (≈ 17.9 µM).
As to `CC(=O)OCC#CCSc1nnc(-c2ccc(Br)cc2)o1`, the IC50 was less than 0.1 µg/mL.
On to `O=C(NC1CCCCC1)c1cccc(N2C(=O)c3cccc4c([N+](=O)[O-])ccc(c34)C2=O)c1`, for which the IC50 was 0.39 µg/mL (≈ 0.879 µM).
Consider `Cc1cc(C)c(OCCCCNCc2ccccc2)c(Cl)c1`, for which the IC50 was 5.18 µg/mL (≈ 16.3 µM).
Consider `COC(=O)COc1cc2oc(=O)cc(-c3ccccc3)c2cc1Cl`, for which the IC50 was 29 µg/mL (≈ 84.1 µM).
Turning to `CCC(C)c1ccc(O)c(NC(=S)NC(=O)c2cccnc2)c1` (configuration not stated), the IC50 is less than 0.1 µg/mL.
